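Step 1: Grow cells in 96-well plates. Step 2: Expose to compound for 48 hours at 5 concentrations. Step 3: Interpolate endpoints linearly; if unreached, use highest concentration. GI50 marks 50% less growth. TGI marks complete inhibition of growth.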
Assays:
Assay in all cases: growth of human tumour cells (NCI), 48 h; in the data active means GI50 below about 0.43 µM; inactive means the rest
[1] = system: COLO 205 colon
[2] = system: A498 renal
[3] = system: HT29 colon
[4] = system: UO-31 renal
[5] = system: SF-539 CNS
[6] = system: PC-3 prostate
[7] = system: RPMI-8226 leukemia
[8] = system: NCI-H23 lung
[9] = system: IGROV1 ovarian
[10] = system: BT-549 breast
[11] = system: ACHN renal
[12] = system: OVCAR-5 ovarian
[13] = system: T-47D breast
[14] = system: TK-10 renal
[15] = system: U251 CNS
[16] = system: SR leukemia
[17] = system: MCF7 breast
[18] = system: K-562 leukemia
[19] = system: EKVX NSCLC
[20] = system: HCT-116 colon
[21] = system: HCC-2998 colon
[22] = system: 786-0 renal
[23] = system: SK-MEL-2 melanoma
[24] = system: RXF 393 renal
[25] = system: SF-268 CNS
[26] = system: SK-MEL-28 melanoma
[27] = system: OVCAR-8 ovarian
[28] = system: OVCAR-3 ovarian
[29] = system: CCRF-CEM leukemia
[30] = system: SF-295 CNS
[31] = system: OVCAR-4 ovarian
[32] = system: HCT-15 colon
[33] = system: SNB-19 CNS
[34] = system: SNB-75 CNS
[35] = system: NCI-H522 lung
[36] = system: SN12C renal
[37] = system: M14 melanoma
[38] = system: UACC-62 melanoma
[39] = system: NCI/ADR-RES ovarian
[40] = system: HOP-92 NSCLC
[41] = system: HL-60(TB) leukemia
[42] = system: NCI-H226 lung
[43] = system: DU-145 prostate
[44] = system: CAKI-1 renal
[45] = system: SW-620 colon
[46] = system: LOX IMVI melanoma
[47] = system: A549 NSCLC
[48] = system: HOP-62 NSCLC
[49] = system: MDA-MB-231 breast
[50] = system: MOLT-4 leukemia
[51] = system: SK-MEL-5 melanoma
[52] = system: HS 578T breast
[53] = system: KM12 colon
[54] = system: SK-OV-3 ovarian
[55] = system: MDA-MB-435
[56] = system: UACC-257 melanoma
[57] = system: NCI-H460 lung
[58] = system: MALME-3M melanoma

N#Cc1c(N/N=C/c2c(Cl)cccc2Cl)nc(N)nc1N1CCCC1
42.2 µM: TGI [49]
97.3 µM: TGI [9]
6.98 µM: TGI [39]
inactive: GI50 [1] 5.29 µM | GI50 [2] 0.502 µM | GI50 [3] 1.96 µM | GI50 [4] 5.36 µM | GI50 [5] 1.77 µM | GI50 [6] 2.89 µM | GI50 [7] 2.56 µM | GI50 [8] 1.16 µM | GI50 [9] 0.783 µM | GI50 [10] 11.3 µM | GI50 [11] 3.18 µM | GI50 [12] 8.31 µM | GI50 [13] > 100 µM | GI50 [14] 5.9 µM | GI50 [15] 2.51 µM | GI50 [16] 0.795 µM | GI50 [17] 5.8 µM | GI50 [18] 2.87 µM | GI50 [19] 39.7 µM | GI50 [20] 1.01 µM | GI50 [21] 1.34 µM | GI50 [22] 3.93 µM | GI50 [23] 5.55 µM | GI50 [24] 2.34 µM | GI50 [25] > 100 µM | GI50 [26] 16.4 µM | GI50 [27] 3.53 µM | GI50 [28] 0.878 µM | GI50 [29] 3.52 µM | GI50 [30] 1.02 µM | GI50 [31] > 100 µM | GI50 [32] 0.645 µM | GI50 [33] 7.14 µM | GI50 [34] 2.01 µM | GI50 [35] 2.63 µM | GI50 [36] 4.68 µM | GI50 [37] 1.36 µM | GI50 [38] 1.47 µM | GI50 [39] 1.5 µM | GI50 [40] 9.41 µM | GI50 [41] 3.4 µM | GI50 [42] 11.8 µM | GI50 [43] 5.23 µM | GI50 [44] 1.29 µM | GI50 [45] 1.38 µM | GI50 [46] 2.16 µM | GI50 [47] 3.65 µM | GI50 [48] 1.7 µM | GI50 [49] 3.25 µM | GI50 [50] 2.88 µM | GI50 [51] 0.722 µM | GI50 [52] 3.05 µM | GI50 [53] 3.02 µM | GI50 [54] 5.12 µM
7.04 µM: TGI [41]
20 µM: TGI [32]
40 µM: TGI [6]
6.75 µM: TGI [18]
13.3 µM: TGI [35]
18.3 µM: TGI [50]
40.5 µM: TGI [27]
7.11 µM: TGI [51]
9.11 µM: TGI [8]
16.1 µM: TGI [29]
5.58 µM: TGI [5]
8.21 µM: TGI [7]
3.03 µM: TGI [16]
21 µM: TGI [21]
16.8 µM: TGI [20]
> 100 µM: TGI [1] | TGI [3] | TGI [4] | TGI [10] | TGI [11] | TGI [12] | TGI [13] | TGI [14] | TGI [15] | TGI [17] | TGI [19] | TGI [22] | TGI [23] | TGI [24] | TGI [25] | TGI [26] | TGI [28] | TGI [30] | TGI [31] | TGI [33] | TGI [34] | TGI [36] | TGI [37] | TGI [38] | TGI [40] | TGI [42] | TGI [43] | TGI [44] | TGI [45] | TGI [46] | TGI [47] | TGI [48] | TGI [52] | TGI [53] | TGI [54]
3.18 µM: TGI [2]

COc1cc(/C=C/C(=O)c2c(-c3ccc(Cl)cc3)nc3sc(C)nn23)cc(OC)c1OC
87.7 µM: TGI [29]
40.6 µM: TGI [41]
8.8 µM: TGI [35]
13.5 µM: TGI [13]
25.1 µM: TGI [40]
> 100 µM: TGI [1] | TGI [55] | TGI [56] | TGI [2] | TGI [3] | TGI [4] | TGI [5] | TGI [57] | TGI [8] | TGI [9] | TGI [11] | TGI [12] | TGI [14] | TGI [15] | TGI [16] | TGI [17] | TGI [18] | TGI [20] | TGI [21] | TGI [22] | TGI [24] | TGI [25] | TGI [26] | TGI [27] | TGI [28] | TGI [30] | TGI [31] | TGI [32] | TGI [33] | TGI [36] | TGI [37] | TGI [38] | TGI [39] | TGI [42] | TGI [43] | TGI [44] | TGI [45] | TGI [46] | TGI [47] | TGI [48] | TGI [58] | TGI [49] | TGI [50] | TGI [52] | TGI [53] | TGI [54]
5.78 µM: TGI [7]
15.6 µM: TGI [51]
inactive: GI50 [1] 60.8 µM | GI50 [55] 12.1 µM | GI50 [56] 16 µM | GI50 [2] 51.9 µM | GI50 [3] 77.7 µM | GI50 [4] 7.27 µM | GI50 [5] > 100 µM | GI50 [57] > 100 µM | GI50 [7] 1.82 µM | GI50 [8] 24.8 µM | GI50 [9] 70.1 µM | GI50 [10] 7.77 µM | GI50 [11] 20.8 µM | GI50 [12] > 100 µM | GI50 [13] 2.56 µM | GI50 [14] 27.1 µM | GI50 [15] 17.1 µM | GI50 [16] 4.9 µM | GI50 [17] 8.81 µM | GI50 [18] 4.49 µM | GI50 [20] 15.7 µM | GI50 [21] > 100 µM | GI50 [22] 51.2 µM | GI50 [24] 17.3 µM | GI50 [25] 24.6 µM | GI50 [26] > 100 µM | GI50 [27] 5.62 µM | GI50 [28] 35.7 µM | GI50 [29] 3.92 µM | GI50 [30] 30 µM | GI50 [31] 31.8 µM | GI50 [32] 15.8 µM | GI50 [33] > 100 µM | GI50 [34] 12.8 µM | GI50 [35] 2.94 µM | GI50 [36] 53.9 µM | GI50 [37] 55.2 µM | GI50 [38] 5.15 µM | GI50 [39] 7.85 µM | GI50 [40] 3.48 µM | GI50 [41] 5.94 µM | GI50 [42] 23.7 µM | GI50 [43] > 100 µM | GI50 [44] 54 µM | GI50 [45] 10.2 µM | GI50 [46] 18.4 µM | GI50 [47] 49.5 µM | GI50 [48] 10.4 µM | GI50 [58] 25.6 µM | GI50 [49] 14.3 µM | GI50 [50] 7.59 µM | GI50 [51] 3.1 µM | GI50 [52] 24.7 µM | GI50 [53] 21.6 µM | GI50 [54] 66.6 µM
33.7 µM: TGI [34]
77.7 µM: TGI [10]

Reference: PubChem BioAssay (NCI)
